Measured values: ChEMBL document CHEMBL1201862, “PubChem BioAssay data set” (2004)
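Grown in 96-well plates, cells were treated for 48 hours with each compound at five concentrations. Insufficient inhibition: endpoint recorded as highest concentration tested. GI50 = concentration required for 50% inhibition of growth.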 Active and inactive are the calls of the source. Rule as the data show it: active = GI50 up to about 1.1 µM and inactive = higher.

What was measured:
Test in all cases: growth of human tumour cells (NCI), 48 h
ACHN = test system: ACHN
HCT-116 = test system: HCT-116
HCT-15 = test system: HCT-15
HOP-62 = test system: HOP-62
HT-29 = test system: HT-29
M14 = test system: M14
Malme-3M = test system: Malme-3M
NCI-H226 = test system: NCI-H226
NCI-H23 = test system: NCI-H23
NCI-H522 = test system: NCI-H522
RXF 393 = test system: RXF 393
SF-295 = test system: SF-295
SN12C = test system: SN12C
TK-10 = test system: TK-10
U-251 = test system: U-251
UACC-257 = test system: UACC-257
UACC-62 = test system: UACC-62
UO-31 = test system: UO-31
PC-3 = test system: PC-3
DU-145 = test system: DU-145

Measured: GI50

CSC(=S)NNC(=O)c1ccncc1
inactive: ACHN 18.1 µM | HCT-116 21 µM | HOP-62 20.8 µM | HT-29 18.2 µM | M14 19 µM | Malme-3M 18.8 µM | NCI-H226 18.2 µM | NCI-H23 16.1 µM | NCI-H522 16.9 µM | RXF 393 16.1 µM | SF-295 22.6 µM | SN12C 21.4 µM | TK-10 26.7 µM | U-251 22.5 µM | UACC-257 23.8 µM | UACC-62 16.5 µM | UO-31 17.8 µM
15 µM: HCT-15

CCOC(=O)C1CCCc2sc(N)c(C#N)c21 (centres undefined)
> 100 µM: HCT-15
inactive: ACHN > 100 µM | HCT-116 > 100 µM | HOP-62 > 100 µM | HT-29 > 100 µM | M14 > 100 µM | Malme-3M > 100 µM | NCI-H226 > 100 µM | NCI-H23 > 100 µM | PC-3 > 100 µM | RXF 393 > 100 µM | SN12C > 100 µM | TK-10 > 100 µM | U-251 > 100 µM | UACC-257 > 100 µM | UACC-62 > 100 µM | UO-31 > 100 µM

CN1C(=O)C(=CNc2ccccc2Cl)C(=O)N(C)C1=O
inactive: ACHN 24.5 µM | HCT-116 18 µM | HOP-62 19.8 µM | HT-29 > 100 µM | M14 21.9 µM | Malme-3M > 100 µM | NCI-H226 > 100 µM | NCI-H23 > 100 µM | NCI-H522 > 100 µM | PC-3 20.2 µM | RXF 393 15.1 µM | SF-295 17.7 µM | SN12C > 100 µM | TK-10 > 100 µM | U-251 > 100 µM | UACC-257 > 100 µM | UACC-62 > 100 µM | UO-31 > 100 µM
17.9 µM: HCT-15

CN1CCN(C(=S)N(C(=O)c2ccco2)C2CCCCC2)CC1
> 100 µM: HCT-15
inactive: ACHN > 100 µM | DU-145 > 100 µM | HT-29 > 100 µM | M14 > 100 µM | Malme-3M > 100 µM | NCI-H226 > 100 µM | NCI-H23 > 100 µM | NCI-H522 > 100 µM | RXF 393 > 100 µM | SF-295 > 100 µM | SN12C > 100 µM | TK-10 > 100 µM | U-251 > 100 µM | UACC-257 > 100 µM | UACC-62 > 100 µM | UO-31 > 100 µM

CC1=CC(=O)N(c2c(C)cccc2Cl)C(C)N1 (centres undefined)
inactive: ACHN > 100 µM | HCT-116 > 100 µM | HOP-62 > 100 µM | HT-29 > 100 µM | M14 > 100 µM | Malme-3M > 100 µM | NCI-H226 > 100 µM | NCI-H23 > 100 µM | NCI-H522 > 100 µM | RXF 393 > 100 µM | SF-295 > 100 µM | SN12C > 100 µM | TK-10 > 100 µM | U-251 > 100 µM | UACC-257 > 100 µM | UACC-62 > 100 µM | UO-31 > 100 µM
> 100 µM: HCT-15

O=C(O)c1cc2ccccc2c(/N=N/c2ccc(S(=O)(=O)Nc3ncccn3)cc2)c1O
> 100 µM: HCT-15
inactive: ACHN > 100 µM | HCT-116 > 100 µM | HOP-62 > 100 µM | HT-29 > 100 µM | M14 > 100 µM | Malme-3M > 100 µM | NCI-H226 > 100 µM | NCI-H522 > 100 µM | PC-3 > 100 µM | RXF 393 > 100 µM | SF-295 > 100 µM | TK-10 > 100 µM | U-251 > 100 µM | UACC-257 > 100 µM | UACC-62 > 100 µM | UO-31 > 100 µM

CC1(C)CN=C(c2ccc3ccccc3c2O)N1
inactive: ACHN > 100 µM | DU-145 > 100 µM | HCT-116 > 100 µM | HOP-62 > 100 µM | M14 > 100 µM | NCI-H23 > 100 µM | PC-3 > 100 µM | SF-295 2.27 µM | SN12C > 100 µM | TK-10 > 100 µM | U-251 > 100 µM | UACC-257 > 100 µM | UACC-62 > 100 µM | UO-31 > 100 µM
> 100 µM: HCT-15

O=C(CC1(O)C(=O)Nc2ccc([N+](=O)[O-])cc21)c1ccc(Br)cc1 (centres undefined)
> 100 µM: HCT-15
inactive: ACHN 56.6 µM | HCT-116 37.2 µM | HOP-62 > 100 µM | HT-29 > 100 µM | M14 > 100 µM | Malme-3M > 100 µM | NCI-H226 85.1 µM | NCI-H23 40.6 µM | NCI-H522 19.6 µM | RXF 393 28.6 µM | SF-295 52.6 µM | SN12C > 100 µM | TK-10 32.7 µM | U-251 22.3 µM | UACC-257 69.8 µM | UACC-62 47.2 µM | UO-31 45.1 µM
